Results taken from US20200268702A1, “METHODS OF TREATING […]” (Amarin Pharmaceuticals Ireland Limited, priority 2013, published 2020).

Test system: patients with fasting triglyceride levels >500 mg/dL
Assay: MARINE study: 12-week placebo-controlled study of AMR101, metabolic syndrome subset
Assay type: in vivo, human
Settings: 12 weeks, subjects with metabolic syndrome
Experimental: A multi-center, placebo-controlled randomized, double-blind, 12-week study with an open-label extension was performed to evaluate the efficacy and safety of AMR101 in patients with fasting triglyceride levels >500 mg/dL. The primary objective of the study was to determine the efficacy of AMR101 2 g daily and 4 g daily, compared to placebo, in lowering fasting TG levels in patients with fasting TG levels 500 mg/dL and 1500 mg/dL (5.65 mmol/L and 16.94 mmol/L).
The population for this study was men and women (women of childbearing potential will need to be on contraception or practice abstinence) >18 years of age with a body mass index ≤45 kg/m^2 who were not on lipid-altering therapy or were currently on lipid-altering therapy. Patients currently on statin therapy (with or without ezetimibe) were evaluated by the investigator as to whether this therapy can be safely discontinued at screening, or if it should be continued. If statin therapy (with or without ezetimibe) was to be continued, dose(s) must have been stable […] prior to randomization. Patients taking non-statin, lipid-altering medications (niacin >200 mg/day, fibrates, fish oil, other products containing omega-3 fatty acids, or other herbal products or dietary supplements with potential lipid-altering effects), either alone or in combination with statin therapy (with or without ezetimibe), must have been able to safely discontinue non-statin, lipid-altering therapy at screening.
Approximately 240 patients were randomized at approximately 50 centers in North America, South America, Central America, Europe, India, and South Africa. The study was a 58- to 60-week, Phase 3, multi-center study consisting of 3 study periods: (1) A 6- to 8-week screening period that included a diet and lifestyle stabilization and washout period and a TG qualifying period; (2) A 12-week, double-blind, randomized, placebo-controlled treatment period; and (3) A 40-week, open-label, extension period.
After confirmation of qualifying fasting TG values, eligible patients entered a 12-week, randomized, double-blind treatment period. At Visit 4 (Week 0), patients were randomly assigned to 1 of the following treatment groups: • AMR101 2 g daily, • AMR101 4 g daily, or • Placebo.
Eligible patients were randomly assigned at Visit 4 (Week 0) to receive orally AMR101 2 g daily, AMR101 4 g daily, or placebo for the 12-week double-blind treatment period. AMR101 was provided in 1 g liquid-filled, oblong, gelatin capsules. The matching placebo capsule was filled with light liquid paraffin and contained 0 g of AMR101. During the double-blind treatment period, patients took 2 capsules (AMR101 or matching placebo) in the morning and 2 in the evening for a total of 4 capsules per day. Patients in the AMR101 2 g/day treatment group received 1 AMR101 1 g capsule and 1 matching placebo capsule in the morning and in the evening. Patients in the AMR101 4 g/day treatment group received 2 AMR101 1 g capsules in the morning and evening.
The primary efficacy variable for the double-blind treatment period was percent change in TG from baseline to Week 12 endpoint. […]

CC/C=C\C/C=C\C/C=C\C/C=C\C/C=C\CCCC(=O)OCC [AMR101, ethyl eicosapentaenoate]
Apo B, Change from Baseline, % (2 g/day, No statins): 2.8% | Apo B, End of Treatment, median (IQR) (2 g/day, No statins): 121 mg/dL | Apo B, Median % Change From Baseline vs Placebo (2 g/day, No statins): −1.8% | HDL-C, Change from Baseline, % (2 g/day, No statins): 0.0% | HDL-C, End of Treatment, median (IQR) (2 g/day, No statins): 26 mg/dL | HDL-C, Median % Change From Baseline vs Placebo (2 g/day, No statins): 0.3% | LDL-C, Change from Baseline, % (2 g/day, No statins): 1.9% | LDL-C, End of Treatment, median (IQR) (2 g/day, No statins): 95 mg/dL | LDL-C, Median % Change From Baseline vs Placebo (2 g/day, No statins): 2.8% | Non-HDL-C, Change from Baseline, % (2 g/day, No statins): −1.1% | Non-HDL-C, End of Treatment, median (IQR) (2 g/day, No statins): 218 mg/dL | Non-HDL-C, Median % Change From Baseline vs Placebo (2 g/day, No statins): −7.8% | TG, Change from Baseline, % (2 g/day, No statins): −10.1% | TG, End of Treatment, median (IQR) (2 g/day, No statins): 586 mg/dL | TG, Median % Change From Baseline vs Placebo (2 g/day, No statins): −17.2% | hsCRP, Change from Baseline, % (2 g/day, No statins): 38.0% | hsCRP, End of Treatment, median (IQR) (2 g/day, No statins): 2.5 (3.10) mg/L | hsCRP, Median % Change From Baseline vs Placebo (2 g/day, No statins): −7.1% | Apo B, Change from Baseline, % (2 g/day, Statins): −0.9% | Apo B, End of Treatment, median (IQR) (2 g/day, Statins): 105 mg/dL | Apo B, Median % Change From Baseline vs Placebo (2 g/day, Statins): −9.1% | HDL-C, Change from Baseline, % (2 g/day, Statins): 0.0% | HDL-C, End of Treatment, median (IQR) (2 g/day, Statins): 30 mg/dL | HDL-C, Median % Change From Baseline vs Placebo (2 g/day, Statins): 4.2% | LDL-C, Change from Baseline, % (2 g/day, Statins): −3.8% | LDL-C, End of Treatment, median (IQR) (2 g/day, Statins): 77.5 mg/dL | LDL-C, Median % Change From Baseline vs Placebo (2 g/day, Statins): 6.2% | Non-HDL-C, Change from Baseline, % (2 g/day, Statins): 10.1% | Non-HDL-C, End of Treatment, median (IQR) (2 g/day, Statins): 206 mg/dL | Non-HDL-C, Median % Change From Baseline vs Placebo (2 g/day, Statins): −10.9% | TG, Change from Baseline, % (2 g/day, Statins): 14.5% | TG, End of Treatment, median (IQR) (2 g/day, Statins): 708 mg/dL | TG, Median % Change From Baseline vs Placebo (2 g/day, Statins): −33.0% | hsCRP, Change from Baseline, % (2 g/day, Statins): 14.3% | hsCRP, End of Treatment, median (IQR) (2 g/day, Statins): 1.6 (2.20) mg/L | hsCRP, Median % Change From Baseline vs Placebo (2 g/day, Statins): −36.6% | Apo B, Change from Baseline, % (2 g/day, Total): 2.5% | Apo B, End of Treatment, median (IQR) (2 g/day, Total): 117 mg/dL | Apo B, Median % Change From Baseline vs Placebo (2 g/day, Total): −3.3% | HDL-C, Change from Baseline, % (2 g/day, Total): 0.0% | HDL-C, End of Treatment, median (IQR) (2 g/day, Total): 28 mg/dL | HDL-C, Median % Change From Baseline vs Placebo (2 g/day, Total): 0.9% | LDL-C, Change from Baseline, % (2 g/day, Total): −2.5% | LDL-C, End of Treatment, median (IQR) (2 g/day, Total): 94 mg/dL | LDL-C, Median % Change From Baseline vs Placebo (2 g/day, Total): 3.6% | Non-HDL-C, Change from Baseline, % (2 g/day, Total): 0.0% | Non-HDL-C, End of Treatment, median (IQR) (2 g/day, Total): 214 mg/dL | Non-HDL-C, Median % Change From Baseline vs Placebo (2 g/day, Total): −8.3% | TG, Change from Baseline, % (2 g/day, Total): −4.3% | TG, End of Treatment, median (IQR) (2 g/day, Total): 606 mg/dL | TG, Median % Change From Baseline vs Placebo (2 g/day, Total): −19.1% | hsCRP, Change from Baseline, % (2 g/day, Total): 25.1% | hsCRP, End of Treatment, median (IQR) (2 g/day, Total): 2.4 (3.20) mg/L | hsCRP, Median % Change From Baseline vs Placebo (2 g/day, Total): −14.5% | Apo B, Change from Baseline, % (4 g/day, No statins): −4.3% | Apo B, End of Treatment, median (IQR) (4 g/day, No statins): 123 mg/dL | Apo B, Median % Change From Baseline vs Placebo (4 g/day, No statins): −9.2% | HDL-C, Change from Baseline, % (4 g/day, No statins): 0.0% | HDL-C, End of Treatment, median (IQR) (4 g/day, No statins): 25 mg/dL | HDL-C, Median % Change From Baseline vs Placebo (4 g/day, No statins): −4.2% | LDL-C, Change from Baseline, % (4 g/day, No statins): −1.5% | LDL-C, End of Treatment, median (IQR) (4 g/day, No statins): 92 mg/dL | LDL-C, Median % Change From Baseline vs Placebo (4 g/day, No statins): −2.0% | Non-HDL-C, Change from Baseline, % (4 g/day, No statins): −9.9% | Non-HDL-C, End of Treatment, median (IQR) (4 g/day, No statins): 220 mg/dL | Non-HDL-C, Median % Change From Baseline vs Placebo (4 g/day, No statins): −18.5% | TG, Change from Baseline, % (4 g/day, No statins): −26.6% | TG, End of Treatment, median (IQR) (4 g/day, No statins): 582 mg/dL | TG, Median % Change From Baseline vs Placebo (4 g/day, No statins): −28.5% | hsCRP, Change from Baseline, % (4 g/day, No statins): 0.0% | hsCRP, End of Treatment, median (IQR) (4 g/day, No statins): 2.3 (2.30) mg/L | hsCRP, Median % Change From Baseline vs Placebo (4 g/day, No statins): −78.0% | hsCRP, Median % Change From Baseline vs Placebo (4 g/day, No statins, listed as IPE): −27.6% | Apo B, Change from Baseline, % (4 g/day, Statins): −1.6% | Apo B, End of Treatment, median (IQR) (4 g/day, Statins): 100 mg/dL | Apo B, Median % Change From Baseline vs Placebo (4 g/day, Statins): −9.0% | HDL-C, Change from Baseline, % (4 g/day, Statins): −5.2% | HDL-C, End of Treatment, median (IQR) (4 g/day, Statins): 29 mg/dL | HDL-C, Median % Change From Baseline vs Placebo (4 g/day, Statins): 0.3% | LDL-C, Change from Baseline, % (4 g/day, Statins): −11.4% | LDL-C, End of Treatment, median (IQR) (4 g/day, Statins): 72.5 mg/dL | LDL-C, Median % Change From Baseline vs Placebo (4 g/day, Statins): −4.3% | Non-HDL-C, Change from Baseline, % (4 g/day, Statins): −7.6% | Non-HDL-C, End of Treatment, median (IQR) (4 g/day, Statins): 172 mg/dL | Non-HDL-C, Median % Change From Baseline vs Placebo (4 g/day, Statins): −27.4% | TG, Change from Baseline, % (4 g/day, Statins): −29.1% | TG, End of Treatment, median (IQR) (4 g/day, Statins): 457 mg/dL | TG, Median % Change From Baseline vs Placebo (4 g/day, Statins): −62.6% | hsCRP, Change from Baseline, % (4 g/day, Statins): −35.1% | hsCRP, End of Treatment, median (IQR) (4 g/day, Statins): 2.7 (3.70) mg/L | hsCRP, Median % Change From Baseline vs Placebo (4 g/day, Statins): −27.6% | hsCRP, Median % Change From Baseline vs Placebo (4 g/day, Statins, listed as IPE): −78.0% | Apo B, Change from Baseline, % (4 g/day, Total): −3.5% | Apo B, End of Treatment, median (IQR) (4 g/day, Total): 120 mg/dL | HDL-C, Change from Baseline, % (4 g/day, Total): 0.0% | HDL-C, End of Treatment, median (IQR) (4 g/day, Total): 26 mg/dL | HDL-C, Median % Change From Baseline vs Placebo (4 g/day, Total): −3.0% | LDL-C, Change from Baseline, % (4 g/day, Total): −4.1% | LDL-C, End of Treatment, median (IQR) (4 g/day, Total): 89 mg/dL | Non-HDL-C, Change from Baseline, % (4 g/day, Total): −9.6% | Non-HDL-C, End of Treatment, median (IQR) (4 g/day, Total): 207 mg/dL | TG, Change from Baseline, % (4 g/day, Total): −26.8% | TG, End of Treatment, median (IQR) (4 g/day, Total): 504 mg/dL | hsCRP, Change from Baseline, % (4 g/day, Total): −2.9% | hsCRP, End of Treatment, median (IQR) (4 g/day, Total): 2.4 (2.95) mg/L | Apo B, Median % Change From Baseline vs Placebo (4 g/day, Total, listed as IPE): −9.1% | LDL-C, Median % Change From Baseline vs Placebo (4 g/day, Total, listed as IPE): −3.2% | Non-HDL-C, Median % Change From Baseline vs Placebo (4 g/day, Total, listed as IPE): −19.9% | TG, Median % Change From Baseline vs Placebo (4 g/day, Total, listed as IPE): −35.0% | hsCRP, Median % Change From Baseline vs Placebo (4 g/day, Total, listed as IPE): −40.0%
